# Test results reported in patent publication US8129527B2, “Analogs of dehydrophenylahistins and their therapeutic use” (Nereus Pharmacuticals, Inc., priority 2006, dated 2012).
# Like-named read-outs stand apart in the source and are kept apart here.
# Columns and labels:
# [1] = tested on: MES-SA/Dx5 (Taxol Resistant) human uterine sarcoma; test: Drug resistant cell line pair, cytotoxicity (Example 10B); type: cell-based; conditions: Homo sapiens, MES-SA/Dx5, MES-SA/DX5 Resistant, CsA Pretreat; Studies II-III in separate lines
# Text: (§1) 1) Human Uterine Sarcoma Tumor Cell Line Pair: MES-SA (Taxol Sensitive) and MES-SA/Dx5 (Taxol Resistant).
# [2] = tested on: MES-SA (Taxol Sensitive) human uterine sarcoma; test: as above; type: cell-based; conditions: Homo sapiens, MES-SA, CsA Pretreat, Studies II-III in separate lines
# Text: as §1
# PARP in Jurkat cells = test: Cleavage of poly(ADP-ribose)polymerase (PARP), western blotting; type: cell-based, human; conditions: 100 nM, 10 hours after exposure
# Description: In order to assess the ability of these compounds to induce apoptosis in Jurkat cells, cleavage of poly(ADP-ribose)polymerase (PARP) was monitored. […] The cleavage of PARP generates a stable 89 kDa product, and this process can be easily monitored by western blotting.
# [3] = tested on: P388 murine leukemia cells; test: Cytotoxic effect in P388 cells; type: cell-based
# Text: The cytotoxic effects of phenylahistin, dehydrophenylahistin and various derivatives of dehydrophenylahistin were examined in P388 murine leukemia cells, HT-29 human colon cells, and PC-3 prostatic adenocarcinoma cells.
# [4] = tested on: A549 human non small cell lung tumor; test: A549 Human Lung Tumor Xenograft Model; type: in vivo, nude mice; conditions: KPU-2 7.5 mg/kg ip qdx5 with taxotere
# Description: Animals used were (exceptions are indicated for individual studies): female nude mice (nu/nu) between 5 and 6 weeks of age (˜20 g, Harlan); group size was 9-10 mice per group unless otherwise indicated.
# Selected novel compounds were administered as monotherapy via the intraperitoneal (i.p.) route at the doses indicated for the individual study; for the combination studies the selected reference chemotherapy agents were injected 15-30 min prior to the compound.
# Saline dilutions are used to achieve the injection concentrations used for the reference compounds.
# Animals were implanted s.c. by trocar with fragments of A549 tumors harvested from s.c. growing tumors in nude mice hosts. When the tumor size reached 5 mm×5 mm (about 10-17 days) the animals were matched into treatment and control groups.
# [5] = tested on: HL-60 (Mitoxantrone-Sensitive) human acute promyelocytic leukemia; test: Drug resistant cell line pair, cytotoxicity (Example 10B); type: cell-based; conditions: HL-60 Sensitive
# Text: 2) Human Acute Promyelocytic Leukemia Cell Line Pair: HL-60 (Mitoxantrone-Sensitive) and HL-60/MX-2 (Mitoxantrone-Resistant)
# HT-29 human colon tumor = test: HT-29 Human Colon Tumor Xenograft Model; type: in vivo
# In short: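 Nude mice bearing s.c. trocar-implanted HT-29 fragments were grouped at 5 mm×5 mm tumours and dosed i.p.; in combinations, reference chemotherapy was given 15-30 min before compound. Caliper measurements twice weekly were converted to tumour weight as (W^2×L)/2, with study end when control tumours averaged 1000 mg.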
# [6] = tested on: OVCAR-3 (human ovarian tumor); test: Tumor panel screen cytotoxicity (Example 10A); type: cell-based; conditions: OVCAR-3 Ovary
# Text: (§2) Cells were maintained at subconfluent densities in their respective culture media.
# [7] = tested on: NCI-H292 (human non-small cell lung tumor); test: Tumor panel screen cytotoxicity (Example 10A); type: cell-based; conditions: maximum cytotoxic effect
# Text: as §2
# [8] = tested on: MDA-MB-231 (human breast tumor); test: Tumor panel screen cytotoxicity (Example 10A); type: cell-based; conditions: MDA-MB-231 Breast
# Text: as §2
# HT29 (human colon tumor) = test: Tumor panel screen cytotoxicity (Example 10A); type: cell-based
# Text: as §2
# [9] = tested on: B16-F10 murine melanoma cells; test: B16-F10 Metastatic Murine Melanoma Model; type: in vivo, B6D2F1 mice; conditions: monotherapy, lung surface metastases day 16
# Description: The animals used were: female nude mice (nu/ni) (MDA-231 study) or B6D2F1 (B16-F10 studies) mice between 5 and 6 weeks of age (˜20 g, Harlan); group size was 10 mice per group unless otherwise indicated.
# The cell lines used were: MDA-MB-231 human breast tumor and B16-F10 murine melanoma cells.
# NPI compounds were administered as monotherapy via the intraperitoneal route at the doses indicated for the individual study; for the combination studies the selected reference chemotherapy agents were injected 15-30 min prior to the NPI compound.
# Mice received B16-F10 cells (prepared from an in vitro cell culture of B16-F10 cells) by the iv route on Day 0. On Day 1 mice were randomized into treatment and control groups and treatment commenced. Mice were weighed twice weekly, starting on Day 1. All mice are sacrificed on Day 16, the lungs removed, weighed and the surface colonies counted. Results are expressed as mean colonies of treated mice/mean colonies of control mice (T/C)×100%). The metastasis growth inhibition (MGI) is this number subtracted from 100%. Paclitaxel was the standard chemotherapy agent used in this study.
# In this model unless otherwise noted for the individual study, the test compounds were administered via the intraperitoneal route on Days 1-5 (qdx5); paclitaxel was administered intravenously on Days 1-5(qdx5).
# Jurkat cells = test: cells; type: cell-based; conditions: Jurkat cells
# [10] = tested on: human prostate tumor cells; test: Induction of apoptosis, morphological changes; type: cell-based
# Text: Apoptosis and its dysregulation play an important role in oncology; the selective induction of the programmed cell death cycle in tumor cells is the goal of many chemotherapeutic drug discovery programs.
# The characteristic signs of apoptotic cell death include cell membrane blebbing, disruption of nuclei, cell shrinkage and condensation and finally cell death, very distinctive from necrotic cell death. […] A similar finding was also clear in the treatment of HuVEC cells with KPU-2.
# [11] = tested on: MCF-7 (Taxol Sensitive) human breast carcinoma; test: Drug resistant cell line pair, cytotoxicity (Example 10B); type: cell-based; conditions: Homo sapiens, MCF7/Taxol, read-out: MCF-7 Sensitive IC50 nM
# Text: (§3) 3). Human Breast Carcinoma Cell Line Pair: MCF-7 (Taxol Sensitive) and MCF-7/ADR (Taxol Resistant)
# [12] = tested on: MCF-7/ADR (Taxol Resistant) human breast carcinoma; test: as above; type: cell-based; conditions: Homo sapiens, NCI/ADR-RES, read-out: MCF-7/ADR Resistant IC 50 nM
# Text: as §3
# HT-29 human colon cells = test: Tumor cytotoxicity assay, resazurin fluorescence, 48 h (Example 6); type: cell-based; conditions: Homo sapiens
# Lyn (mouse) = Lyn (mouse) (Mus musculus, UniProt P25911); conditions: ATP 10 μM
# Lyn (mouse), sequence (P25911 whole entry): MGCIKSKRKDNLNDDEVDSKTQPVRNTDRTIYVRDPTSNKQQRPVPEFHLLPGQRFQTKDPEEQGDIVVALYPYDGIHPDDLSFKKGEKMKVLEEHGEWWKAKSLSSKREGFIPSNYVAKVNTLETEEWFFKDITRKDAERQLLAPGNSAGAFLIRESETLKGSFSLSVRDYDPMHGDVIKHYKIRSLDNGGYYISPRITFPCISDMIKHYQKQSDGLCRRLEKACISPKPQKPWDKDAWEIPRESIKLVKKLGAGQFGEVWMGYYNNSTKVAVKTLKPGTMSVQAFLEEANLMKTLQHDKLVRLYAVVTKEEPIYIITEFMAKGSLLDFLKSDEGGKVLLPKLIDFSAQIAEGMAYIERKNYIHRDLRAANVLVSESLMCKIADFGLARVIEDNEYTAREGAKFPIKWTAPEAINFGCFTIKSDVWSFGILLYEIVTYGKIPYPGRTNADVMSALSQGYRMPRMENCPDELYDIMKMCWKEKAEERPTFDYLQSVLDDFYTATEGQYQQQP
smiles,measurement,setting,value
"CC(C)(C)c1[nH]cnc1/C=c1\[nH]c(=O)/c(=C/c2ccccc2)[nH]c1=O [KPU-2, tBu-dehydro-PLH]",IC50,[1],37.8 nM
same,IC50,[2],27.4 nM
same,cleavage of PARP,PARP in Jurkat cells,induced cleavage of PARP
same,IC50,"[3]; Mus musculus, P388, read-out: IC50 (nM) P-388",31.8 ± 5 nM
same,cytotoxicity in P388 cells,[3]; in words,exhibited cytotoxicity in P388 cells
same,TGI of the cotherapy group,[4],74.4%
same,IC50,[5],6.4 nM
same,Comments (combination with CPT-11),"HT-29 human colon tumor; NPI compound + CPT-11 100 ip qwx3, study and dose as in the line",Synergy
same,NPI-Compound Result TGI %,"HT-29 human colon tumor; Study 2139, monotherapy 7.5 mg/kg ip q3dx5",No Effect
same,NPI-Compound Result TGI %,"HT-29 human colon tumor; Study 2164, monotherapy 7.5 mg/kg ip q3dx5",No Effect
same,NPI-Compound Result TGI %,"HT-29 human colon tumor; Study 2164, monotherapy 7.5 mg/kg ip qdx5",No Effect
same,NPI-Compound Result TGI %,"HT-29 human colon tumor; Study 2288, monotherapy 10→7.5 mg/kg ip q3dx5",No Effect
same,Exceed NCI Criterion (TGI ≧ 58%),"HT-29 human colon tumor; which treatment group exceeds the criterion, NPI compound, CPT-11 100 ip qwx3 or combination, study and dose as in the line",Combination
same,IC50,[6]; Homo sapiens,> 20000 nM
same,% Cytotoxicity Mean,[6]; maximum cytotoxic effect,45.8%
same,% Cytotoxicity Mean,[7],70.5%
same,IC50,[8]; Homo sapiens,13.8 nM
same,% Cytotoxicity Mean,[8]; maximum cytotoxic effect,56.7%
same,% Cytotoxicity Mean,"HT29 (human colon tumor); HT-29 Colon, maximum cytotoxic effect",82.5%
same,IC50,"HT29 (human colon tumor); Homo sapiens, HT-29 Colon",9.8 nM
same,potency on the HT-29 tumor cell line,HT29 (human colon tumor); in words,low nanomolar range
same,MGI (metastasis growth inhibition),[9],41.6%
same,Cytotoxicity Efficacy % Cell Death,Jurkat cells,94%
same,morphological changes of apoptosis,[10],induced the typical morphological changes associated with early stages of apoptosis
same,IC50,[11],39.6 nM
same,IC50,[12],27.4 nM
same,EC50,"HT-29 human colon cells; HT-29, Table 6, proliferation of HT-29 cells",13 nM
same,EC50,"HT-29 human colon cells; HT-29, Table 9, summary of modification at the o-position, HT-29",48 nM
same,EC50,"HT-29 human colon cells; HT-29, Table 10, summary of modification at the m-position, HT-29",48 nM
same,EC50,"HT-29 human colon cells; HT-29, read-out: EC50 (nM) HT-29, Table 2",13 nM
same,EC50,"HT-29 human colon cells; HT-29, read-out: EC50 (nM) HT-29, Table 3",13 nM
same,EC50,"HT-29 human colon cells; HT-29, Table 5, synthetic potent dehydroPLH derivatives",13 nM
same,IC50,Lyn (mouse),11100 nM
